Test results: article PMC8012336, “An automated and high-throughput-screening compatible pluripotent stem cell-based test platform for developmental and reproductive toxicity assessment of small molecule compounds” (Cell Biology and Toxicology, 2020)
≈ marks a conversion by molar mass, not a printed value.

Assays:
NIH/3T3 = tested on: NIH/3T3; design: method as in Scholz et al. [1999]; conditions: ZEBET value, 7 d result; ref Scholz et al. [1999]; cited from earlier work
mESC-D3 [1] = tested on: mESC-D3; design: method as in Scholz et al. [1999]; conditions: ZEBET value, 7 d result; ref Scholz et al. [1999]; cited from earlier work
[2] = Manual MTT cell viability assay, 7 d; format: cell-based, mouse; conditions: mouse, manual, in brackets the two individual experiments
Description: (§1) The MTT cell viability assay was performed as described (Seiler and Spielmann [2011]) with modifications. In brief, 96-well cell culture plates were coated with gelatin (0.1%) before plating mESC-D3. All peripheral wells of the assay plate were filled with 200 μl growth media (“blank”). Afterward, NIH/3T3 and mESC-D3 were plated in growth media (1 × 10^4 cells/ml, 50 μl/well). […] Vehicle (PBS) and positive control (5-fluorouracil) wells were also included on all assay plates. Three and 5 days after seeding the cell supernatant was replaced by freshly prepared compound solution (200 μl/well). Seven days after seeding the cell viability was detected. Therefore, the cell supernatant was aspirated from all wells, MTT solution (5 mg/ml) was added (20 μl/well) and the assay plate was incubated for 2 h at 37 °C and 5% CO2 in a humidified atmosphere. Afterward, all liquid was removed from the wells and MTT desorb solution (0.7% SDS in 2-propanol (Carl Roth, Cat. No. 9866.5), pre-warmed to 37 °C) was dispensed (130 μl/well). The assay plate was placed on a shaker for 15 min. Remaining precipitates were suspended by pipetting up and down with a multichannel pipette before measuring the absorption at 570 nm on a microtiter plate reader using 630 nm as a reference wavelength.
(§2) Toxicity data from the MTT and CellTiter-Glo Assay was normalized against the vehicle control (100% viability) and plotted against the logarithmic compound concentration.

mESC-D3 [3] = tested on: mESC-D3; design: method as in Scholz et al. [1999]; conditions: ZEBET value printed beside hanging drop differentiation result; ref Scholz et al. [1999]; cited from earlier work
[4] = Manual CellTiter-Glo luminescent cell viability assay (7 d or 5 d); format: cell-based, mouse; conditions: mouse, in brackets the two individual experiments
Description: 96-well cell culture plates were coated with gelatin (0.1%) before plating mESC-D3. All peripheral wells of the assay plate were filled with 200 μl growth media. In order to assess compound toxicity on mESC-D3 and NIH/3T3 cells, cell suspensions of NIH/3T3, and mESC-D3 were prepared in growth media (1 × 10^4 cells/ml) and were transferred to all remaining wells (50 μl/well). A 7-point dilution series in growth media was prepared for each test compound and was transferred to the assay plate 2 h after cell seeding (150 μl/well). Afterward, the cells were incubated in a humidified atmosphere at 37 °C and 5% CO2. Three and 5 days after seeding the cell supernatant was replaced by freshly prepared compound solution (200 μl/well). […] The assay plate was placed on a shaker for 1 min and after another 10 min incubation at room temperature in the dark the luminescence signal was detected on a plate reader.
as §2

[5] = Manual human EST cytotoxicity assay, CellTiter-Glo, 5 d; conditions: human
Description: (§3) The cytotoxicity assessment with a reduced assay time of 5 days combined with either NADH- or ATP-based detection was also carried out with human induced pluripotent stem cells (hiPSCs). […] Furthermore, differences in the cytotoxicity effects between the hiPSCs and HDFfs were more pronounced than in the mouse cells. Similar to the cytotoxicity-based assay the overall variance in the data is reduced when viability data was obtained by an ATP-based read-out.
96-well cell culture plates were coated with gelatin (0.1%) before plating mESC-D3. All peripheral wells of the assay plate were filled with 200 μl growth media. In order to assess compound toxicity on mESC-D3 and NIH/3T3 cells, cell suspensions of NIH/3T3, and mESC-D3 were prepared in growth media (1 × 10^4 cells/ml) and were transferred to all remaining wells (50 μl/well). A 7-point dilution series in growth media was prepared for each test compound and was transferred to the assay plate 2 h after cell seeding (150 μl/well). Afterward, the cells were incubated in a humidified atmosphere at 37 °C and 5% CO2. Three and 5 days after seeding the cell supernatant was replaced by freshly prepared compound solution (200 μl/well). Seven days after seeding the assay plate was taken out of the incubator and located at room temperature for 10 min, before cell supernatant was aspirated (80 μl/well) and CellTiter-Glo® reagent was dispensed (50 μl/well). The assay plate was placed on a shaker for 1 min and after another 10 min incubation at room temperature in the dark the luminescence signal was detected on a plate reader.
(§4) Figure S1: Step-wise evolution of the cytotoxicity assay towards the use of human cell lines. Related to Figure 2. Cytotoxicity assays were carried out with two compound sets on hiPSC line ZIPi013-E and HDFf, from which they were derived. […] A) 5 day MTT assay and manual handling. B) As in A), but using CellTiter-Glo® viability assay. All points in the graph represent the mean of 6 individual data points, including the standard error.

[6] = Manual human EST cytotoxicity assay, MTT, 5 d; conditions: human
Description: as §3, §1, §4

mESC-D3 [7] = assay: Conventional mouse ES-D3 differentiation assay in hanging drop format (petri dish; cardiomyocyte contraction, day 10); format: cell-based; conditions: manual; beating cardiomyocytes at day 10; in brackets the two individual experiments
Description: Separate Petri dishes were used for each concentration of test compound, untreated control, and solvent control. […] The EB suspension was incubated for 2 days. On day five of the assay, a fresh compound dilution series was prepared in media and transferred into 24-well cell culture plates (1 ml/well, Greiner bio-one, Cat. No. 662641). A separate 24-well plate was used for each compound concentration, untreated control, and solvent control (24 wells per condition). One EB was transferred from the Petri dish into each well of the 24-well plate. After further 5 days of incubation (= day 10 of the assay), cardiomyocyte contraction was determined in each well under the light microscope.

[8] = Automated CellTiter-Glo luminescent cell viability (cytotoxicity) assay, 5 d; conditions: mouse
Description: The CellTiter-Glo® luminescent cell viability assay (Promega, Cat. No. G7573) was automated in 96-well format on the lab automation platform Fluent® (Tecan, Männedorf, Switzerland). The procedure allowed the testing of six compounds in mESC-D3 and NIH/3T3 cells in parallel. On the first day, PBS was dispensed into the peripheral wells of the assay plates (200 μl/well) using the Multiple Channel Arm (MCA). Mouse ES-D3 and NIH/3T3 cells were plated (50 μl/well, 1 × 10^4 cells/ml)) using the Flexible Channel Arm (FCA) and transported into the Cytomat™ 10 (Thermo Fisher Scientific) for incubation using the Robotic Gripper Arm (RGA). A 7-point dilution series of the test compounds and control solutions were prepared in PBS or DMSO (Carl Roth, Cat. No. HN47.1) under the laminar flow, transferred to a 96-well 0.5-ml Masterblock plate (Greiner bio-one, Cat. No. 786261) and placed on the worktable. On the Fluent the compounds were transferred to a 96-well 2-ml Masterblock plate (Greiner bio-one, Cat. No. 780271) and further diluted in growth media using the FCA. Two hours after cell plating compounds and controls were transferred to the assay plate with the FCA (150 μl/well) and transported back in the Cytomat 10. On day three of the assay, the media was exchanged using the MCA: old media was aspirated and dispensed into a 96-deep-well plate (“waste”), freshly prepared compound, and control solution was dispensed into the assay plate. After two more days of incubation, the cell viability was determined using the CellTiter-Glo assay. The assay plates were transported from the Cytomat 10 to the Carousel (Tecan) to adapt to room temperature. After 25 min the cell supernatant was removed partially (80 μl/well) and CellTiter-Glo reagent was dispensed (50 μl/well). The assay plate was placed on a shaker for 1 min and afterward incubated 25 min in the Carousel before the Luminescence signal was detected on the Infinite M1000 Pro plate reader (Tecan).
as §2

[9] = tested on: mESC-D3 and NIH/3T3 cells; conditions: manual murine EST assay; prediction model of Seiler and Spielmann 2011
mESC-D3 [10] = format: cell-based, mouse
Description: As an alternative to the morphological analysis at day 10, differentiation can be analyzed at day 7 of the assay by flow cytometry using the molecular flow EST (Buesen et al. [2009]). Previously, staining of cardiomyocytes was performed using an unconjugated primary monoclonal antibody directed against the sarcomeric MHC (clone MF20), followed by binding of a secondary biotin-conjugated goat anti-mouse IgG antibody which is then detected with the fluorochrome PE-SA (phycoerythrin-conjugated streptavidin) (Seiler and Spielmann [2011]). […] Of note, these experiments were performed in parallel with the same batch of spontaneously differentiated mESCs.
Embryoid bodies were formed in hanging drops (Petri dish) as already described. On day 5 of the assay, the EBs were transferred into a larger Petri dish and incubated for two more days at 37 °C, 5% CO2, and 95% humidity. Afterward, the EBs were dissociated using the Embryoid Body Dissociation Kit (Miltenyi Biotec, Cat. No. 130-096-348). EBs from two Petri dishes were harvested in one 15 ml tube and washed once with 10 ml PBS. The supernatant was discarded after centrifugation and a pre-warmed enzyme mix was added. The EB/enzyme mix was incubated for 10 min at 37 °C, dissociated for 1 min with a 1000 μl pipette, incubated for 5 min and mechanically dissociated again for 1 min. After the addition of 3 ml PBS, the cell suspension was passed through a 70-μm filter into a new 15-ml tube. The filter was then washed with 3 ml PBS and discarded afterward. The cell suspension was centrifuged for 5 min at 300 rpm. The supernatant was discarded afterward, cells were suspended in PBS and counted. For viability staining, 10^6 cells were suspended in 100 μl staining reagent (LIVE/DEAD™ Fixable Green Dead Stain Kit, Life Technologies, Cat. No. L34969), incubated for 30 min at 4 °C and washed with 1 ml PBS. For fixation, cells were suspended in 100 μl fixation buffer (BioLegend, Cat. No. 420801) and incubated 20 min at room temperature. For the intracellular staining, cells were washed twice with 1 ml permeabilization buffer (BioLegend, Cat. No. 421002) and suspended in 50 μl permeabilization buffer supplemented with 50 μl of pre-diluted (1:5) antibody (mouse IgG2B anti-human Myosin Heavy Chain APC-conjugated, mouse IgG2B APC-conjugated isotype control, R&D Systems, Cat. No. IC4470A). After 1 h incubation at room temperature cells were washed twice with 1 ml permeabilization buffer and suspended in FACS buffer. Within 2–3 h samples were measured on an LSR II flow cytometer (Beckton Dickinson). Data analysis was done using FlowJo software (Version 10.0.8; Tree Star).

[11] = NIH/3T3 cells, read-out: Cytotoxicity assay MTT, 7 d IC50 NIH/3T3
[12] = mESC-D3 cells, read-out: Cytotoxicity assay MTT, 7 d IC50 mESC-D3
[13] = NIH/3T3 cells, read-out: Cytotoxicity assay CTG, 5 d IC50 NIH/3T3
[14] = NIH/3T3 cells, read-out: Cytotoxicity assay CTG, 7 d IC50 NIH/ 3T3
[15] = mESC-D3 cells, read-out: Cytotoxicity assay CTG, 5 d IC50 mESC-D3
[16] = mESC-D3 cells, read-out: Cytotoxicity assay CTG, 7 d IC50 mESC-D3
[17] = HDFf (human dermal fibroblasts of fetal origin)
[18] = mESC-D3 cells (mouse embryonic stem cells)

Structure (SMILES)	IC50 NIH/3T3 (ZEBET) (NIH/3T3) [µg/mL]	IC50 mESC-D3 (ZEBET) (mESC-D3 [1]) [µg/mL]	IC50 at 7 d [2, 11] [µg/mL]	IC50 at 7 d [2, 12] [µg/mL]	ID50 mESC-D3 (ZEBET) (mESC-D3 [3]) [µg/mL]	IC50 at 5 d [4, 13] [µg/mL]	IC50 at 7 d [4, 14] [µg/mL]	IC50 at 5 d [4, 15] [µg/mL]	IC50 at 7 d [4, 16] [µg/mL]	IC50 at 5 d [5, 17] [µg/mL]	IC50 at 5 d ([5]; hiPSC line ZIPi013-E) [µg/mL]	IC50 at 5 d [6, 17] [µg/mL]	IC50 at 5 d ([6]; hiPSC line ZIPi013-E) [µg/mL]	Differentiation assay in hanging drop (petri dish) ID50 mESC-D3 (mESC-D3 [7])	IC50 at 5 d ([8]; NIH/3T3 cells) [µg/mL]	IC50 at 5 d [8, 18] [µg/mL]	Compound classification [9]	ID50 FACS (MHC-positive cells) (mESC-D3 [10]; flow cytometry, day 7) [µg/mL]	MHC-positive cells (mESC-D3 [10]; treated with 10 μg/ml, untreated 31% (hydroxyurea), 26% (fumonisine B1)) [%]
CC1(C)S[C@@H]2[C@H](NC(=O)Cc3ccccc3)C(=O)N2[C@H]1C(=O)O [Penicillin G, penicillin G]	1586 (≈ 4740 µM)	2950 (≈ 8820 µM)	> 1000	> 1000	3450 (≈ 10300 µM)	992 (≈ 2970 µM)	> 1000	> 1000	> 1000	795 (≈ 2380 µM)	> 1000	822 (≈ 2460 µM)	750 (≈ 2240 µM)	1000 (> 1000; > 1000) µg/ml	> 1000	> 1000			
C[C@@H]1C[C@H]2[C@@H]3CCC4=CC(=O)C=C[C@]4(C)[C@@]3(F)[C@@H](O)C[C@]2(C)[C@@]1(O)C(=O)CO [Dexamethasone, dexamethasone]	26 (≈ 66.2 µM)	23 (≈ 58.6 µM)	49.2 (≈ 125 µM)	23.5 (≈ 59.9 µM)	18.3 (≈ 46.6 µM)	34.8 (≈ 88.7 µM)	35.2 (≈ 89.7 µM)	15.7 (≈ 40 µM)	20.8 (≈ 53 µM)					25.7 (29.1; 22.3) µg/ml	> 50	18.7 (≈ 47.6 µM)	weak embryotoxicity		
CCCC[C@@H](C)[C@@H](OC(=O)C[C@@H](CC(=O)O)C(=O)O)[C@H](C[C@@H](C)C[C@H](O)CCCC[C@@H](O)C[C@H](O)[C@H](C)N)OC(=O)C[C@@H](CC(=O)O)C(=O)O [Fumonisin, fumonisine B1]																		2.26 (≈ 3.13 µM)	3
O=c1[nH]cc(F)c(=O)[nH]1 [5-Fluorouracil, 5-fluorouracil]	0.17 (≈ 1.31 µM)	0.103 (≈ 0.792 µM)	0.116 (≈ 0.892 µM)	0.0395 (≈ 0.304 µM)	0.0289 (≈ 0.222 µM)	0.0958 (≈ 0.736 µM)	0.128 (≈ 0.984 µM)	0.0493 (≈ 0.379 µM)	0.0681 (≈ 0.524 µM)	0.186 (≈ 1.43 µM)	0.0166 (≈ 0.128 µM)	0.195 (≈ 1.5 µM)	0.223 (≈ 1.72 µM)		0.11 (≈ 0.846 µM)	0.0627 (≈ 0.482 µM)	strong embryotoxicity		
Cn1c(=O)c2c(ncn2C)n(C)c1=O [Caffeine, caffeine]				152 (≈ 783 µM)	185 (≈ 953 µM)			172 (≈ 886 µM)	119 (≈ 613 µM)	412 (≈ 2120 µM)	43.6 (≈ 225 µM)	358 (≈ 1850 µM)	13.3 (≈ 68.3 µM)	130 (130; > 200) µg/ml		138 (≈ 711 µM)			
